According to patent publication US11148999B2, “Nitric oxide donors” (MedChem Partners, LLC, priority 2016, dated 2021):

System: not listed separately
Experiment: NO release in PBS versus rat plasma (Griess reaction)
Assay type: in vitro ADME
Conditions: 100 μM in PBS versus rat plasma, 37° C., readings at 0 minutes, 30 minutes, 3 hours; classified and ranked on NO release behavior
Description: The compounds were dissolved in DMSO and added to PBS and then incubated at 37° C. NO release was measured using the Griess reaction at t=0, 30 minutes, and 3 hours. NO production in this assay was an indication of the hydrolytic instability of the capping group. […] Compounds were dissolved in DMSO and added to rat plasma and then incubated at 37° C. NO release was measured using the Griess reaction at t=0, 30 minutes, and 3 hours. Differences in the amount and rate of NO release reflect the kinetics of hydrolysis of the capping groups by proteases endogenous to the rat plasma. This experiment reflected the ability of compounds to release NO in vivo. For both panels A and B, the compounds tested are labelled as: 506-3-91 is Compound 31, 506-3-159 is Compound 33, 506-3-123 is Compound 32, 506-3-149 is Compound 30, 506-3-117 is Compound 26506-3-121 is Compound 29, 506-3-153 is Compound 27, 506-3-151 is Compound 28, 506-3-145 is Compound 7, 506-3-93 is Compound 10, 506-3-113 is Compound 4, 506-3-111 is Compound 11, 506-3-133 is Compound 12, 506-3-131 is Compound 13, 506-3-81 is Compound 14, 506-3-103 is Compound 18, 506-3-157 is Compound 19, 506-3-115 is Compound 9, 506-3-143 is Compound 6, and 506-3-147 is Compound 8. For all compounds, three time points are shown (left to right for each labelled compound): 0 time point, 30 minutes time point, and 3 hours time point.
Compounds were tested for release of NO in PBS versus rat plasma using the Griess reaction. The Griess reaction works by the colorimetric measurement of nitrite levels which is the primary breakdown product of NO. To determine stability, as well as NO release behavior in a biological environment, the compounds were tested for NO release in both PBS and rat plasma at 37° C. […]
Additional experiments were carried out to test the NO release capability of 100 μM of the compounds in PBS versus Rat Plasma. In these experiments, NO release kinetics was explored by taking readings at 0 minutes, 30 minutes, and 3 hours. The results are shown in FIG. 2, panels A and B. From these studies, the compounds were classified and ranked based on their NO release behavior as shown in the Table below.

SMILES	Release Behavior
CCN(CC)/[N+]([O-])=N/OCN1C(=O)c2ccccc2C1=O [Compound 506-3-81, (Z)-1-((1,3-dioxoisoindolin-2-yl)methoxy)-3,3-diethyltriaz-1-ene 2-oxide]	unstable
O=C1c2ccccc2C(=O)N1CO/N=[N+](\[O-])N1CCCC1CO (stereo not shown) [Compound 506-3-91, (Z)-2-((1,3-dioxoisoindolin-2-yl)methoxy)-1-(2-(hydroxymethyl)pyrrolidin-1-yl)diazene oxide]	unstable
CCN(CC)/[N+]([O-])=N/OCOC(=O)C(C)(C)NC(=O)OC(C)(C)C [Compound 506-3-93, (Z)-3-ethyl-10,10,14,14-tetramethyl-9,12-dioxo-6,8,13-trioxa-3,4,5,11-tetraazapentadec-4-ene 4-oxide]	slow/low release
CCN(CC)/[N+]([O-])=N/OCSC [Compound 506-3-103, (Z)-3,3-diethyl-1-((methylthio)methoxy)triaz-1-ene 2-oxide]	slow/low release
CCCCCCCCCCC(=O)OCO/N=[N+](\[O-])N(CC)CC [Compound 506-3-111, (Z)-3,3-diethyl-1-((undecanoyloxy)methoxy)triaz-1-ene 2-oxide]	quick/long release
CCN(CC)/[N+]([O-])=N/OCOC(=O)[C@@H](NC(=O)OC(C)(C)C)C(C)C [Compound 506-3-113, (S,Z)-3-ethyl-10-isopropyl-14,14-dimethyl-9,12-dioxo-6,8,13-trioxa-3,4,5,11-tetraazapentadec-4-ene 4-oxide]	slow onset
CCC(CC)C(=O)OCO/N=[N+](\[O-])N(CC)CC [Compound 506-3-115, (Z)-3,3-diethyl-1-(((2-ethylbutanoyl)oxy)methoxy)triaz-1-ene 2-oxide]	slow onset
CC(C)(C)C(=O)OCO/N=[N+](\[O-])N1CCCC1CO (stereo not shown) [Compound 506-3-117, (Z)-1-(2-(hydroxymethyl)pyrrolidin-1-yl)-2-((pivaloyloxy)methoxy)diazene oxide]	steady
CC(C)OC(=O)OCO/N=[N+](\[O-])N1CCCC1CO (stereo not shown) [Compound 506-3-121, (Z)-1-(2-(hydroxymethyl)pyrrolidin-1-yl)-2-(((isopropoxycarbonyl)oxy)methoxy)diazene oxide]	slow/low release
CSCO/N=[N+](\[O-])N1CCCC1CO (stereo not shown) [Compound 506-3-123, (Z)-1-(2-(hydroxymethyl)pyrrolidin-1-yl)-2-((methylthio)methoxy)diazene oxide]	slow/low release
CCN(CC)/[N+]([O-])=N/OC(C)OC(=O)OC(C)C (stereo not shown) [Compound 506-3-131, (Z)-3-ethyl-7,11-dimethyl-9-oxo-6,8,10-trioxa-3,4,5-triazadodec-4-ene 4-oxide]	steady/low
CCN(CC)/[N+]([O-])=N/OC(C)OC(=O)OC(C)(C)C (stereo not shown) [Compound 506-3-133, (Z)-3-ethyl-7,11,11-trimethyl-9-oxo-6,8,10-trioxa-3,4,5-triazadodec-4-ene 4-oxide]	unstable
CCCC(=O)OCO/N=[N+](\[O-])N(CC)CC [Compound 506-3-143, (Z)-1-((butyryloxy)methoxy)-3,3-diethyltriaz-1-ene 2-oxide]	intermediate
CCN(CC)/[N+]([O-])=N/OCOC(=O)c1ccccc1 [Compound 506-3-145, (Z)-1-((benzoyloxy)methoxy)-3,3-diethyltriaz-1-ene 2-oxide]	steady
CCC(CC)C(=O)OCO/N=[N+](\[O-])N1CCCC1CO (stereo not shown) [Compound 506-3-149, (Z)-2-(((2-ethylbutanoyl)oxy)methoxy)-1-(2-(hydroxymethyl)pyrrolidin-1-yl)diazene oxide]	slow onset
O=C(OCO/N=[N+](\[O-])N1CCCC1CO)c1ccccc1 (stereo not shown) [Compound 506-3-151, (Z)-2-((benzoyloxy)methoxy)-1-(2-(hydroxymethyl)pyrrolidin-1-yl)diazene oxide]	slow onset
CCCC(=O)OCO/N=[N+](\[O-])N1CCCC1CO (stereo not shown) [Compound 506-3-153, (Z)-2-((butyryloxy)methoxy)-1-(2-(hydroxymethyl)pyrrolidin-1-yl)diazene oxide]	steady/low
CCN(CC)/[N+]([O-])=N/OC[S+](C)[O-] (stereo not shown) [Compound 506-3-157, (Z)-3,3-diethyl-1-((methylsulfinyl)methoxy)triaz-1-ene 2-oxide]	slow/low release
C[S+]([O-])CO/N=[N+](\[O-])N1CCCC1CO (stereo not shown) [Compound 506-3-159, (Z)-1-(2-(hydroxymethyl)pyrrolidin-1-yl)-2-((methylsulfinyl)methoxy)diazene oxide]	slow/low release

System: not listed separately
Experiment: Stability of the pure compound on storage
Assay type: physicochemical
Conditions: not given

SMILES	stability of the pure compound
CCCCCCCCCCC(=O)OCO/N=[N+](\[O-])N(CC)CC [Compound 506-3-111, (Z)-3,3-diethyl-1-((undecanoyloxy)methoxy)triaz-1-ene 2-oxide]	stable for over one year

System: diabetic Lep/r-db/db mice
Experiment: Initial dose range wound healing study, murine diabetic wound model, PVA gel
Assay type: in vivo
Conditions: PVA gel with 10, 50, 100 uM test article versus PVA gel alone, applied twice a day, day 7, 1-cm^2 full-thickness wound
Description: A murine diabetic wound model for utilized to test the ability of the gel formulation of the invention to accelerate wound healing. Specifically, diabetic Lep/r-db/db mice were used to study the effects of the gel formulation on granulation tissue thickness, density of α-smooth muscle actin-positive myofibroblasts, wound healing kinetics, blood vessel density, cell proliferation, and tissue ingrowth.
An initial dose range study was performed to study the effects of the compounds of the invention on wound healing. Five homozygous diabetic 8-12 weeks old, Lep/r-db/db male mice (strain C57BL/KsJ-Leprdb) were anesthetized with 60 mg/kg pentobarbital and disinfected with 70% alcohol. Subsequently, a 1-cm^2 full-thickness wound was excised on the dorsa of the mice. The mice were then treated with either PVA gel containing no test article (Control), PVA gel containing test article (i.e., compound 506-3-111) at 10 uM concentration, PVA gel containing test article at 50 uM concentration, or PVA gel containing test article at 100 uM concentration. Immediately after wounding, the experimental groups had the NO releasing gel material applied to the wound twice a day and the control group had only the un-medicated gel applied to the wound. Dressing changes were performed twice daily. […]

SMILES	wound size
CCCCCCCCCCC(=O)OCO/N=[N+](\[O-])N(CC)CC [Compound 506-3-111, (Z)-3,3-diethyl-1-((undecanoyloxy)methoxy)triaz-1-ene 2-oxide]	clear dose dependent reduction in wound size

Same assay, conditions: PVA gel, 10 to 100 uM, topical twice a day, 7 days

SMILES	tolerability (adverse effects or toxicity)
CCCCCCCCCCC(=O)OCO/N=[N+](\[O-])N(CC)CC [Compound 506-3-111, (Z)-3,3-diethyl-1-((undecanoyloxy)methoxy)triaz-1-ene 2-oxide]	well tolerated with no adverse effects or toxicity even at the highest dose
